SMILES strings stand for the structures.

Experiment [1] deals with Miyakogusa (Lotus japonicus). Put plainly: Root nodule formation (number of infection threads, number of root nodules) in Miyakogusa inoculated with DsRED gene-bearing rhizobium. The experiment is classed as in vivo. The note with it: final concentration 10 μM or 100 μM, vs Non-addition (control). As to the method: First, caffeic acid (Caffeic Acid, CAS RN: 331-39-5 C0002, Tokyo Chemical Industry Co., Ltd.) was dissolved in ethanol, thereby preparing a 100 mM stock solution. Next, about 300 mL of vermiculite was added to pots, entirely moistened with water, and then sterilized in an autoclave. Miyakogusa (Lotus japonicus) three to four days after sowing was transplanted into the pots, and 50 mL of B&D liquid medium (Broughton and Dilworth, 1971) containing a DsRED gene-bearing rhizobium (OD600=[…]; 1 mL) and caffeic acid (final concentration: 10 μM or 100 μM) was added.
Plants inoculated with the rhizobium were grown in an incubator (26° C.; 16 hr light/8 hr dark). The plants were dug up from the soil after one week and two weeks, and the number of infection threads and the number of root nodules were counted under a fluorescent stereomicroscope.
In FIG. 1, error bars in the graphs represent standard errors, and asterisks (*) indicate data with a significant difference (Dunnett method: p<0.05; n=10) compared to Non-addition (control).

Experiment [2] has as its system soybean (Glycine max cv. Enrei). The experiment can be described thus: Biomass production and root nodule formation in soybean inoculated with rhizobia (Bradyrhizobium japonicum). Format: in vivo. The note with it: 100 μM, vs Non-addition (control), Dunnett p<0.01, n=8. As to the method:
In this Example, first, seeds of the soybean (Glycine max cv. Enrei) were placed on wet Kimwipes® for three to four days to germinate and then transferred to pots containing vermiculite (about 1.1 L) and grown for about three days in a plant incubator (28° C.; 16 hr light/8 hr dark). Next, a non-addition plot was prepared by adding rhizobia (Bradyrhizobium japonicum; OD600=0.1; 1 mL) to 50 ml of B&D medium. An addition plot was prepared by adding ferulic acid (final concentration: 100 μM) to 50 mL of B&D medium containing rhizobia. They were inoculated into the individual soybean plants. Soybean plants grown in the incubator for one week and two weeks were dug up from the pots, and their growth (aerial part length, underground part length, number of leaves) and number of root nodules were measured.
In FIGS. 4 and 5, error bars in the graphs represent standard errors, and asterisks (**) indicate data with a significant difference (Dunnett method: p<0.01; n=8) compared to Non-addition (control).

Setting [3] is: after two weeks, Dunnett p<0.05, n=10.

For the compound `O=C(O)/C=C/c1ccc(O)c(O)c1` [caffeic acid], the “number of infection threads” value in experiment [1] (after one week, Dunnett p<0.05, n=10) was “significant increase”. The “number of root nodules” value in experiment [1] (setting [3]) is “tendency for the number of root nodules to increase”.
Consider `COc1cc(/C=C/C(=O)O)ccc1O` [ferulic acid, 3-methoxy-4-hydroxycinnamic acid], for which the “number of infection threads” value in experiment [1] (after two weeks) was “significant increases”. Moreover, the “number of root nodules” value is “significant increases” in experiment [1] (setting [3]), “significantly increased” in experiment [2] (soybean grown for one week) and “significantly increased” in experiment [2] (soybean grown for two weeks). The aerial part length entry in experiment [2] (soybean grown for two weeks) is “significantly increased”.
For the compound `COc1cc(/C=C/C(=O)O)cc(OC)c1O` [sinapinic acid, 3,5-Dimethoxy-4-hydroxycinnamic Acid], in experiment [1] (after one week), the “number of root nodules” value is “significant increase”. Besides, the “number of infection threads” value in experiment [1] (after two weeks) is given as “significant increase”.

The values above are taken from patent US20230404075A1, “RHIZOBIA SYMBIOSIS PROMOTING AGENT AND SYMBIOSIS PROMOTION METHOD” (TOYOTA JIDOSHA KABUSHIKI KAISHA, priority 2020, published 2023).
